According to patent US20210395210A1, “INHIBITION OF BACTERIAL CHAPERONIN SYSTEMS” (THE TRUSTEES OF INDIANA UNIVERSITY, priority 2018, published 2021):
Read-outs that look alike come from different tables or passages of the source.

Experiments:
[1] = biological target: T1, native MDH (Sus scrofa, UniProt P00346); assay: Counter-screen for inhibition of native MDH enzymatic activity; format: biochemical, pig
T1 construct: soluble pig heart MDH from Roche, product #10127248001; purchased Roche 10127248001; host or cells: pig heart
T1 sequence (P00346 25-338): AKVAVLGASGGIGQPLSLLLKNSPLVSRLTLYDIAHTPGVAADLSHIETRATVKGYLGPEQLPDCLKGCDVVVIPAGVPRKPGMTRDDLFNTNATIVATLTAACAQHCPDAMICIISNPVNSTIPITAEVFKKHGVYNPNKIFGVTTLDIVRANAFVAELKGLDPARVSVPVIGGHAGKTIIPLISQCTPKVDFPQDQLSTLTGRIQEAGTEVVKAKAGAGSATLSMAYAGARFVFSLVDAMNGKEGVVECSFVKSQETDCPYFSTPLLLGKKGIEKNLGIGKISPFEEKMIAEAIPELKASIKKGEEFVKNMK
Procedure, shortened: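 Fully refolded MDH, produced by a 45 min, 37 °C GroEL/ES reaction and stopped with EDTA, was then dosed with compound (62.5 μM–29 nM, 8 points, 3-fold). Activity was read as A340 NADH decrease until ~90% consumed; reported IC50s are means of at least quadruplicate runs.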

[2] = tested on: Enterococcus faecium (ATCC 19434); assay: Bacterial proliferation assay, E. faecium; format: cell-based
Procedure, shortened: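 This stagnant growth-inhibition assay used E. faecium (ATCC 19434) in cation-adjusted Brain Heart Infusion medium. Diluted cultures (OD600 0.017) were added to clear flat-bottom 384-well plates containing 0.5 μL compound in 20 μL media. After 24 h without shaking at 37° C., absorbance at 600 nm was measured, corrected with bacteria-free plates, and EC50 values were averaged from quadruplicates.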

[3] = tested on: Methicillin resistant S. aureus (MRSA) (ATCC BAA-44); assay: Bacterial proliferation assay, MRSA; format: cell-based, Staphylococcus aureus; details: Staphylococcus aureus
Procedure, shortened: (§1)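 Cation-adjusted BHI (25 mg/L Ca2+, 12.5 mg/L Mg2+); inoculum OD600 0.017; static 37 °C. Read OD600 at 6-8 h for S. aureus, E. cloacae, P. aeruginosa; 24 h for A. baumannii.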

[4] = tested on: Klebsiella Pneumonia (ATCC 13883); assay: Bacterial proliferation assay, K. pneumoniae; format: cell-based
Procedure, shortened: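 Growth inhibition of K. pneumoniae (ATCC 13883) was measured in cation-adjusted BHI broth. An overnight culture was sub-cultured 1:5 for 1-2 hours, then diluted to OD600 of 0.017 and dispensed into compound-stamped 384-well plates. Plates were sealed with oxygen-permeable membranes and incubated without shaking at 37° C. for 6-8 h. Absorbance at 600 nm was corrected against bacteria-free control plates, and EC50 was averaged from quadruplicate replicates.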

[5] = tested on: Acinetobacter baumannii (ATCC 19606); assay: Bacterial proliferation assay, A. baumannii; format: cell-based
Procedure, shortened: as §1

[6] = tested on: Pseudomonas aeruginosa (ATCC 10145); assay: Bacterial proliferation assay, P. aeruginosa; format: cell-based
Procedure, shortened: as §1

[7] = log of IC50 (μM scale), with standard deviation, read-out: log(IC50) Native MDH Reporter (converted)
[8] = read-out: Biochemical Assay IC50 Native MDH Reporter
[9] = ATCC19434, OD600 at 24 h, read-out: Bacterial Proliferation EC50 E. faecium
[10] = ATCC19434, log of EC50 (μM scale), with standard deviation, read-out: log(EC50) Bacterial Proliferation Assay C. faecium (converted)
[11] = MRSA, log of EC50 (μM scale), with standard deviation, read-out: log(EC50) Bacterial Proliferation Assay S. aureus Resistant (converted)
[12] = ATCC13883, OD600 at 6-8 h, read-out: Bacterial Proliferation EC50 K. pneumoniae
[13] = ATCC13883, log of EC50 (μM scale), with standard deviation, read-out: log(EC50) Bacterial Proliferation Assay K. pneumoniae (converted)
[14] = ATCC19606, OD600 at 24 h, read-out: Bacterial Proliferation EC50 A. baumannii
[15] = ATCC19606, log of EC50 (μM scale), with standard deviation, read-out: log(EC50) Bacterial Proliferation Assay A. baumannii (converted)
[16] = ATCC10145, OD600 at 6-8 h, read-out: Bacterial Proliferation EC50 P. aeruginosa
[17] = ATCC10145, log of EC50 (μM scale), with standard deviation, read-out: log(EC50) Bacterial Proliferation Assay P. aeruginosa (converted)
[18] = ATCC19434, 24 h, read-out: Bacterial Proliferation EC50 E. faecium
[19] = ATCC19434, read-out: log(EC50) Bacterial Proliferation Assay C. faecium (converted)
[20] = read-out: Bacterial Proliferation EC50 S. aureus Resistant
[21] = read-out: log(EC50) Bacterial Proliferation Assay S. aureus Resistant (converted)
[22] = ATCC13883, read-out: Bacterial Proliferation EC50 K. pneumoniae
[23] = ATCC13883, read-out: log(EC50) Bacterial Proliferation Assay K. pneumoniae (converted)
[24] = ATCC19606, 24 h, read-out: Bacterial Proliferation EC50 A. baumannii
[25] = ATCC19606, read-out: log(EC50) Bacterial Proliferation Assay A. baumannii (converted)
[26] = ATCC10145, read-out: Bacterial Proliferation EC50 P. aeruginosa
[27] = ATCC10145, read-out: log(EC50) Bacterial Proliferation Assay P. aeruginosa (converted)
[28] = MRSA, OD600 at 6-8 h, read-out: Bacterial Proliferation EC50 S. aureus Resistant

| SMILES | IC50 [1, 7] [µM] | IC50 [1, 8] [µM] | EC50 [2, 9] [µM] | EC50 [2, 10] [µM] | EC50 [3, 11] [µM] | EC50 [4, 12] [µM] | EC50 [4, 13] [µM] | EC50 [5, 14] [µM] | EC50 [5, 15] [µM] | EC50 [6, 16] [µM] | EC50 [6, 17] [µM] | EC50 [3, 28] [µM] | also measured |
| --- | --- | --- | --- | --- | --- | --- | --- | --- | --- | --- | --- | --- | --- |
| O=C(Nc1ccc(Sc2nc3ccccc3s2)cc1)c1ccccc1 [Compound 22, N-(4-(Benzo[d]thiazol-2-ylthio)phenyl)benzamide] | > 63.1 | > 63 | > 100 | > 100 | > 100 | > 100 | > 100 | > 100 | > 100 | > 100 | > 100 | – | – |
| O=C(Nc1ccccc1)c1cccc(Br)c1 [Compound 27, 3-Bromo-N-phenylbenzamide] | > 63.1 | > 63 | > 100 | > 100 | > 100 | > 100 | > 100 | > 100 | > 100 | > 100 | > 100 | – | – |
| O=C(Nc1cccc(Cl)c1)c1cc(Br)cc(Br)c1O [Compound 9, 3,5-Dibromo-N-(3-chlorophenyl)-2-hydroxybenzamide] | 25.1 | 27 | – | – | – | – | – | – | – | – | – | – | EC50 [2, 18]: 73 µM; EC50 [2, 19]: 72.4 µM; EC50 [3, 20]: 1.1 µM; EC50 [3, 21]: 1.1 µM; EC50 [4, 22]: 95 µM; EC50 [4, 23]: 95.5 µM; EC50 [5, 24]: 46 µM; EC50 [5, 25]: 45.7 µM; EC50 [6, 26]: > 100 µM; EC50 [6, 27]: > 100 µM |
| O=C(Nc1ccc(Sc2nc3ccccc3s2)cc1)c1cccc(Br)c1 [Compound 21, N-(4-(Benzo[d]thiazol-2-ylthio)phenyl)-3-bromobenzamide] | > 63.1 | > 63 | > 100 | > 100 | > 100 | > 100 | > 100 | > 100 | > 100 | > 100 | > 100 | – | – |
| COc1ccc(Br)cc1C(=O)Nc1ccc(Sc2nc3ccccc3s2)cc1 [Compound 35, N-(4-(Benzo[d]thiazol-2-ylthio)phenyl)-5-bromo-2-methoxybenzamide] | > 63.1 | > 63 | > 100 | > 100 | > 100 | > 100 | > 100 | > 100 | > 100 | > 100 | > 100 | – | – |
| COc1ccccc1C(=O)Nc1ccccc1 [Compound 44, 2-Methoxy-N-phenylbenzamide] | > 63.1 | > 63 | > 100 | > 100 | > 100 | > 100 | > 100 | > 100 | > 100 | > 100 | > 100 | – | – |
| O=C(Nc1ccccc1)c1ccccc1O [Compound 16, 2-Hydroxy-N-phenylbenzamide] | – | – | – | – | – | – | – | – | – | – | – | – | IC50 ([1]; Biochemical Assay IC50 Native MDH Reporter): > 63 µM; IC50 ([1]; log(IC50) Native MDH Reporter, log of IC50 (μM scale), with standard deviation): > 63.1 µM; EC50 [2, 18]: > 100 µM; EC50 [2, 19]: > 100 µM; EC50 [3, 20]: 51 µM; EC50 [3, 21]: 51.3 µM; EC50 [4, 22]: > 100 µM; EC50 [4, 23]: > 100 µM; EC50 [5, 24]: > 100 µM; EC50 [5, 25]: > 100 µM; EC50 [6, 26]: > 100 µM; EC50 [6, 27]: > 100 µM |
| COc1ccc(Br)cc1C(=O)Nc1ccc(Sc2nc3ccccc3s2)c(Cl)c1 [Compound 31, N-(4-(Benzo[d]thiazol-2-ylthio)-3-chlorophenyl)-5-bromo-2-methoxybenzamide] | > 63.1 | > 63 | > 100 | > 100 | > 100 | > 100 | > 100 | > 100 | > 100 | > 100 | > 100 | – | – |
| COc1ccccc1C(=O)Nc1ccc(Sc2nc3ccccc3s2)c(Cl)c1 [Compound 32, N-(4-(Benzo[d]thiazol-2-ylthio)-3-chlorophenyl)-2-methoxybenzamide] | > 63.1 | > 63 | > 100 | > 100 | > 100 | > 100 | > 100 | > 100 | > 100 | > 100 | > 100 | – | – |
| O=C(Nc1ccc(Sc2nc3ccccc3s2)cc1)c1ccccc1O [Compound 8, N-(4-(Benzo[d]thiazol-2-ylthio)phenyl)-2-hydroxybenzamide] | > 63.1 | > 63 | 67 | 67.6 | 0.407 | > 100 | > 100 | > 100 | > 100 | > 100 | > 100 | 0.41 | – |
| COc1ccccc1C(=O)Nc1ccc(Sc2nc3ccccc3s2)cc1 [Compound 36, N-(4-(Benzo[d]thiazol-2-ylthio)phenyl)-2-methoxybenzamide] | > 63.1 | > 63 | > 100 | > 100 | > 100 | > 100 | > 100 | > 100 | > 100 | > 100 | > 100 | – | – |
| O=C(Nc1ccc(Sc2nc3ccccc3s2)c(Cl)c1)c1ccccc1 [Compound 19, N-(4-(Benzo[d]thiazol-2-ylthio)-3-chlorophenyl)benzamide] | > 63.1 | > 63 | > 100 | > 100 | > 100 | > 100 | > 100 | > 100 | > 100 | > 100 | > 100 | > 100 | – |
| O=C(Nc1cccc(Cl)c1)c1cccc(Br)c1O [Compound 10, 3-Bromo-N-(3-chlorophenyl)-2-hydroxybenzamide] | > 63.1 | – | > 100 | > 100 | 2 | > 100 | > 100 | > 100 | > 100 | > 100 | > 100 | 2 | – |
| O=C(Nc1ccc(Sc2nc3ccccc3s2)c(Cl)c1)c1ccccc1O [Compound 4, N-(4-(Benzo[d]thiazol-2-ylthio)-3-chlorophenyl)-2-hydroxybenzamide] | > 63.1 | > 63 | 64 | 63.1 | 0.447 | > 100 | > 100 | > 100 | > 100 | > 100 | > 100 | 0.45 | – |
| O=C(Nc1cccc(Cl)c1)c1ccccc1O [Compound 12, N-(3-Chlorophenyl)-2-hydroxybenzamide] | > 63.1 | > 63 | > 100 | > 100 | 4.17 | > 100 | > 100 | > 100 | > 100 | > 100 | > 100 | 4.2 | – |
